Laboratory results: PMC9230573 (Frontiers in Pharmacology, 2022)
Where a SMILES comes first, the peptide text is derived from it. Bridges are numbered along the chain shown (N, C = ends).

Target: human CaV2.2 (α1B, β3, α2δ1) (Homo sapiens, UniProt Q00975)
Assay: cell-based

Sequence of human CaV2.2 (α1B, β3, α2δ1) (Q00975 whole entry, looked up): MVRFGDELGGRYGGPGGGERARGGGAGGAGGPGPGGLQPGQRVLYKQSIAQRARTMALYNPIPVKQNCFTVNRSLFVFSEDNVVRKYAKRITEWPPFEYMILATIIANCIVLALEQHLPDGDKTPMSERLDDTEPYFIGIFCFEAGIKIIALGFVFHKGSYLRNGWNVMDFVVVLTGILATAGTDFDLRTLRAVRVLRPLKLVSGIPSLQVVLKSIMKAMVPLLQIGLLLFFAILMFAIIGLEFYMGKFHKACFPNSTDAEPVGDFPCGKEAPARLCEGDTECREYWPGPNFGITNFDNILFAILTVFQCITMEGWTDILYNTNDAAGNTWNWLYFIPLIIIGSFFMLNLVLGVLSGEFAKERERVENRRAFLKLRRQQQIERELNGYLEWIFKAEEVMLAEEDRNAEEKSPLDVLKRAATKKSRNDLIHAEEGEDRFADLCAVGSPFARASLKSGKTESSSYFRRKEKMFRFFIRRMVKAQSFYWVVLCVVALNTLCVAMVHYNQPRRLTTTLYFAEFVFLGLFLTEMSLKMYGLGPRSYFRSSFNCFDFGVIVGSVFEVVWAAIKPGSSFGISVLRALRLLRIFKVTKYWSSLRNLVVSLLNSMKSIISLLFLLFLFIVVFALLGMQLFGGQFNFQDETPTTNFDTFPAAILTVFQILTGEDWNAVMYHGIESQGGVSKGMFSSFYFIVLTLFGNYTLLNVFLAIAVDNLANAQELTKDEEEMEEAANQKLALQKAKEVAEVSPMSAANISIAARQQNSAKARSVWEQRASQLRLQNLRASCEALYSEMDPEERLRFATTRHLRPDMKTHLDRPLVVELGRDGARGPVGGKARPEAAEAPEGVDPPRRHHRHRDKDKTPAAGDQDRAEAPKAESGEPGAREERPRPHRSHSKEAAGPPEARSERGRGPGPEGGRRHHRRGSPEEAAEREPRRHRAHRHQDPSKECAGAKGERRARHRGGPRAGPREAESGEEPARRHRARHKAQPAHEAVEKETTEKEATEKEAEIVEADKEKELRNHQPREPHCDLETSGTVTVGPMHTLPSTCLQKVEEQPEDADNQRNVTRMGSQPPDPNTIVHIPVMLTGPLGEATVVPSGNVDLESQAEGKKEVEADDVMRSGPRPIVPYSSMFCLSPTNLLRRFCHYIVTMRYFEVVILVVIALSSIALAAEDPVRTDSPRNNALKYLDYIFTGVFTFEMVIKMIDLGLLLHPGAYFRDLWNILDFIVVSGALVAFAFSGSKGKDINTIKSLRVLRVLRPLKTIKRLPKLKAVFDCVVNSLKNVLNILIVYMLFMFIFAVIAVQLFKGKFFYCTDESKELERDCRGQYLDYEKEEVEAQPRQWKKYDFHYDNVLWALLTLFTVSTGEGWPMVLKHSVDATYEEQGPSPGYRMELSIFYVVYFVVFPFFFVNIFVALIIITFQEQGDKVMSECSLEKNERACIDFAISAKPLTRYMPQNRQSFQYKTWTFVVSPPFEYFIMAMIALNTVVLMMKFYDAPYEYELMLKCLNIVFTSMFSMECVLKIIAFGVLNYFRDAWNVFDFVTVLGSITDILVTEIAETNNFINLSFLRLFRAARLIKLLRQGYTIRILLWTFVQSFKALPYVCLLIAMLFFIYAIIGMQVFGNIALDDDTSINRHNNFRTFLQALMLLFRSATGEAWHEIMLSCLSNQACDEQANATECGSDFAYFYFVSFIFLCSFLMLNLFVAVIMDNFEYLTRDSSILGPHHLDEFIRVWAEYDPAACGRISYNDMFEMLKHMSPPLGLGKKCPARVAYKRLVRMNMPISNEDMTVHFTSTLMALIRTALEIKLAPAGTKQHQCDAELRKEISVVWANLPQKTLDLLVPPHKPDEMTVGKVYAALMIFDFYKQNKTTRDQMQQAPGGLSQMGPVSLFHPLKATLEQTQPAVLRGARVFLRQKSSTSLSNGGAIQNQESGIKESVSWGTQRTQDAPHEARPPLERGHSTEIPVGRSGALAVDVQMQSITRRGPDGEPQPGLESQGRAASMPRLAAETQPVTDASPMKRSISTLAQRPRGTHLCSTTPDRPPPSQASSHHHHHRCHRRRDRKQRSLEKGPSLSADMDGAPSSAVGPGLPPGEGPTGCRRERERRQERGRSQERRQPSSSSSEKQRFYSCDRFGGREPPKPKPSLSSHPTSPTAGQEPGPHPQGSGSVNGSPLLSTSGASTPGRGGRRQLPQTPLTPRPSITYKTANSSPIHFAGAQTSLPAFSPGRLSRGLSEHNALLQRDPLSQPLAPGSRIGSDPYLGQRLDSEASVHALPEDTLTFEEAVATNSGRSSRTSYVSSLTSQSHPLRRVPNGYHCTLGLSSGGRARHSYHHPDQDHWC

Q: How did the IC50 turn out when `CC[C@H](C)[C@@H]1NC(=O)[C@@H]2CCCN2C(=O)[C@@H]2CSSC[C@H](NC(=O)[C@@H](N)CC(N)=O)C(=O)N[C@@H](CSSC[C@@H](C(N)=O)NC(=O)[C@H](CC(N)=O)NC(=O)[C@H](Cc3ccccc3)NC(=O)[C@H](CCCNC(=N)N)NC(=O)[C@H](CO)NC(=O)[C@H](Cc3ccc(O)cc3)NC(=O)[C@H](CC(=O)O)NC1=O)C(=O)N[C@@H](CCSC)C(=O)N[C@@H](Cc1ccccc1)C(=O)N[C@@H](Cc1c[nH]cn1)C(=O)N[C@@H]([C@@H](C)O)C(=O)N2` [Vt1.27] (H-NCCMFHTCPIDYSRFNC-NH2; disulfide 2-8, 3-17) was run?
A: 398 nM

Q: And the “half-maximum inactivation (V0.5, inact)” value?
A: −69.0 ± 1.0 mV

Q: And the “shift of half-maximum inactivation (V0.5, inact)” value?
A: 3 mV

Q: What about the “τoff (off kinetics of inhibition)” value of the same molecule?
A: 2.7 ± 0.15 s

Q: And the “τon (on kinetics of inhibition)” value?
A: 4.5 ± 0.48 s
